Laboratory results from patent publication US4146501A, “Process for isolating and purifying taste bud receptors for screening and evaluating tastants” (priority 1976, dated 1979).
Where two headings read alike, the source gives them in different places.

Assays:
[1] = test system: taste bud subfraction P4(B); assay: Binding inhibition of 14C sucrose by various substances; set-up: species or system bovine
[2] = molecular target: taste bud P4(B) subfractions; assay: Specific binding: competition of 14C sugars or SSS with unlabeled homologous and heterologous sugars, Scatchard analysis; set-up: species or system bovine; conditions: for Kd: non-linear Scatchard plot, mean ± 1 SEM; for specific binding (competition of 14C sugar or SSS with homologous unlabeled sugar or SSS): taste bud P4(B), FIG. 7
Description: All binding studies were carried out in plastic micro test tubes in a constant temperature shaking bath. […] After incubation the tubes were placed in an ice bath, centrifuged, the supernatant aspirated and 10 μl KRB layered on top of the pellet. The KRB was then aspirated, the top of the test tube cut off with a razor blade just above the bellet, placed into 10 ml Aquasol (New England Nuclear Corp., Boston, Mass.) and the radioactivity determined in a liquid scintillation spectrophotometer. Controls, without filtrates or subfractions, were also included.

[3] = primary class of binding sites, read-out: Kd (dissociation constant), K1
[4] = secondary class of binding sites, read-out: Kd (dissociation constant), K2
[5] = secondary class of binding sites

SMILES: [Cl-].[Cl-].[Zn+2] [ZnCl2]
- sucrose binding activity restored, of the initial activity measured in the absence of EDTA ([1]; 5 mM EDTA plus 20 mM Zn++): about 85%

SMILES: O=S(=O)(O)NC1CCCCC1 [CYCLAMATE, cyclamate]
- Kd [2, 3]: 11.7 ± 2.4 mM
- Kd [2, 4]: 32.6 ± 3.9 mM
- q (concentration of sugar or SSS bound per mg subfraction protein), K1 ([2]; primary class of binding sites): 4.0 ± 0.9 mM/mg protein
- q (concentration of sugar or SSS bound per mg subfraction protein), K2 [2, 5]: 6.6 ± 1.4 mM/mg protein
- specific binding (competition of 14C sugar or SSS with homologous unlabeled sugar or SSS) [2]: occurred

SMILES: O=C1NS(=O)(=O)c2ccccc21 [SACCHARINE, saccharine]
- Kd [2, 3]: 18.3 ± 3.9 mM
- Kd [2, 4]: 66.2 ± 6.8 mM
- q (concentration of sugar or SSS bound per mg subfraction protein), K1 ([2]; primary class of binding sites): 2.7 ± 1.0 mM/mg protein
- q (concentration of sugar or SSS bound per mg subfraction protein), K2 [2, 5]: 6.4 ± 0.4 mM/mg protein
- specific binding (competition of 14C sugar or SSS with homologous unlabeled sugar or SSS) [2]: occurred

SMILES: NC(N)=O [urea]
- inhibition of 14C sucrose binding ([1]; urea 5M, 26 μM 14C sucrose): ~30%

SMILES: [Cl-].[Na+] [NaCl]
- inhibition of 14C sucrose binding [1]: ~50%

SMILES: O=C(O)CN(CCN(CC(=O)O)CC(=O)O)CC(=O)O [EDTA, ethylenediaminetetraacetic acid]
- inhibition of 14C sucrose binding [1]: approximately 40%
